Assay results published in patent US8357717B2, “Spiro group-containing amide compounds having bradykinin 1 receptor (B1R) activity” (Gruenenthal GmbH, priority 2009, dated 2013).

Molecular target: T1, B1R receptor of the rat (rB1R) (Rattus norvegicus, UniProt P97583)
T1 construct: expressed in transfected cells; host or cells: CHO K1 cells, stably transfected
T1 sequence (P97583 1-337): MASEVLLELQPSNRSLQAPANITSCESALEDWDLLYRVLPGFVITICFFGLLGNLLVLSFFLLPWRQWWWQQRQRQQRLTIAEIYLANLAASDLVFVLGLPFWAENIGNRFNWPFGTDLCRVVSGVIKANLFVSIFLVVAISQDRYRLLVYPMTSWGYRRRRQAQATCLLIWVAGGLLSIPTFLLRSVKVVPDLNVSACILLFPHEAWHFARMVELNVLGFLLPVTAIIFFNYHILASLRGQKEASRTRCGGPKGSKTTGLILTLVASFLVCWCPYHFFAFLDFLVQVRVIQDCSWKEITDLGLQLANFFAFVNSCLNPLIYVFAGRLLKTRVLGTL
Assay: FLIPR Ca2+ functional study on bradykinin receptor 1, rB1R cells (CHO K1)
Type: cell-based
Conditions: 10 μM test substance; CHO K1 cells with rat B1R; agonist Des-Arg9-bradykinin at EC80; read-out: B1R antagonism, rat [10 μM] % inhibition
Method: (§1) The agonistic or antagonistic activity of substances can be quantified on the bradykinin receptor 1 (B1R) of the species human and rat using ectopically expressing cell lines (CHO K1 cells) and with the aid of a Ca^2+-sensitive dye (Fluo-4) using a fluorescent imaging plate reader (FLIPR). The indication in % activation is based on the Ca^2+ signal after addition of Lys-Des-Arg^9-bradykinin (0.5 nM) or Des-Arg^9-bradykinin (100 nM). Antagonists lead to suppression of the Ca^2+ influx after the addition of the agonist. % Inhibition compared with the maximum achievable inhibition is indicated.
(§2) The agonistic or antagonistic activity of substances can be determined on the bradykinin receptor 1 (B1R) of the species human and rat using the following assay. According to this assay, the Ca^2+ influx through the channel is quantified with the aid of a Ca^2+-sensitive dye (Fluo-4 type, Molecular Probes Europe BV, Leiden, Netherlands) using a Fluorescent Imaging Plate Reader (FLIPR, Molecular Devices, Sunnyvale, USA).
(§3) Chinese hamster ovary cells (CHO K1 cells) which have been stably transfected with the human B1R gene (hB1R cells) or with the B1R gene of the rat (rB1R cells) are used. For functional studies, the cells are plated out on black 96-well plates having a clear base (BD Biosciences, Heidelberg, Germany or Greiner, Frickenhausen, Germany) in a density of 20,000-35,000 cells/well. The cells are left overnight at 37° C. and with 5% CO2 in culture medium (hB1R cells: Nutrient Mixture Ham's F12, Gibco Invitrogen GmbH, Karlsruhe, Germany or DMEM, Sigma-Aldrich, Taufkirchen, Germany; rB1R cells: D-MEM/F12, Gibco Invitrogen GmbH, Karlsruhe, Germany), with 10 vol. % FBS (fetal bovine serum, Gibco Invitrogen GmbH, Karlsruhe, Germany or PAN Biotech GmbH, Aidenbach, Germany). On the following day, the cells are loaded for 60 minutes at 37° C. with 2.13 μM Fluo-4 (Molecular Probes Europe BV, Leiden, Netherlands) in HBSS buffer (Hank's buffered saline solution, Gibco Invitrogen GmbH, Karlsruhe, Germany) […] (Sigma-Aldrich, Taufkirchen, Germany) and 10 mM HEPES (Sigma-Aldrich, Taufkirchen, Germany). The plates are then washed twice with HBSS buffer, and HBSS buffer additionally containing 0.1% BSA (bovine serum albumin; Sigma-Aldrich, Taufkirchen, Germany), 5.6 mM glucose and 0.05% gelatin (Merck KGaA, Darmstadt, Germany) is added to the plates. After incubation for a further 20 minutes at room temperature, the plates are inserted into the FLIPR for Ca^2+ measurement. Alternatively, washing is carried out with buffer A (15 mM HEPES, 80 mM NaCl, 5 mM KCl, 1.2 mM CaCl2, 0.7 mM MgSO4, 2 g/l glucose, 2.5 mM probenecid) followed by loading with buffer A with added 2.5 μM Fluo-4 and 0.025% Pluronic F127 (Sigma-Aldrich, Taufkirchen, Germany). The cells are then washed twice with buffer A and incubated for 30 minutes at room temperature with buffer A additionally containing 0.05% BSA and 0.05% gelatin and are then inserted into the FLIPR for Ca^2+ measurement. The Ca^2+-dependent fluorescence is measured before and after the addition of substances (λex=488 nm, λem=540 nm). Quantification is carried out by measuring the highest fluorescence intensity (FC, fluorescence counts) over time.
(§4) The FLIPR protocol consists of two substance additions. Test substances (10 μM) are first pipetted onto the cells and the Ca^2+ influx is compared with the control (hB1R: Lys-Des-Arg^9-bradykinin >=50 nM; rB1R: Des-Arg^9-bradykinin 10 μM). This gives the activation in %, based on the Ca^2+ signal after addition of Lys-Des-Arg^9-bradykinin (>=50 nM) or Des-Arg^9-bradykinin (10 μM). After 10-20 minutes' incubation, Lys-Des-Arg^9-bradykinin (hB1R) or Des-Arg^9-bradykinin (rB1R) is applied in the concentration of the EC80, and the influx of Ca^2+ is likewise determined. Antagonists lead to suppression of the Ca^2+ influx. The % inhibition compared with the maximum achievable inhibition is calculated. […]

Going from `COc1cc(C)c(S(=O)(=O)N2CCc3ccc(C(=O)N4CCC5(CC4)CCN(c4ccncc4)CC5)cc3C2)c(C)c1` [Compound G-04, (2-(4-Methoxy-2,6-dimethylphenylsulfonyl)-1,2,3,4-tetrahydroisoquinolin-7-yl)(9-(pyridin-4-yl)-3,9-diazaspiro[5.5]undecan-3-yl)methanone] to `COc1cc(C)c(S(=O)(=O)N2CCc3ccc(C(=O)N4CCC5(CC4)CCN(c4ccncc4)CC5)cc32)c(C)c1` [G_CC-008, (1-(4-Methoxy-2,6-dimethylphenylsulfonyl)indolin-6-yl)(9-(pyridin-4-yl)-3,9-diazaspiro[5.5]undecan-3-yl)methanone], the inhibition at 10 µM rises from 99% to 100%.

Going from `COc1cc(C)c(S(=O)(=O)N2CCCc3ccc(CC(=O)N4CCC5(CC4)CCN(c4ccncc4)C5)cc32)c(C)c1` [Compound G-09, 2-(1-(4-Methoxy-2,6-dimethylphenylsulfonyl)-1,2,3,4-tetrahydroquinolin-7-yl)-1-(2-(pyridin-4-yl)-2,8-diazaspiro[4.5]decan-8-yl)ethanone] to `COc1cc(C)c(S(=O)(=O)N2CCCc3ccc(CC(=O)N4CCC5(CCN(Cc6ccccc6)C5)C4)cc32)c(C)c1` (stereo not shown) [G_CC-054, 1-(7-Benzyl-2,7-diazaspiro[4.4]nonan-2-yl)-2-(1-(4-methoxy-2,6-dimethylphenylsulfonyl)-1,2,3,4-tetrahydroquinolin-7-yl)ethanone], the inhibition at 10 µM falls from 96% to 71%.

`COc1cc(C)c(S(=O)(=O)N2CCc3ccc(C(=O)N4CCC5(CC4)CCN(Cc4ccc(F)cc4)C5=O)cc32)c(C)c1` [G_CC-006, 2-(4-Fluorobenzyl)-8-(1-(4-methoxy-2,6-dimethylphenylsulfonyl)indoline-6-carbonyl)-2,8-diazaspiro[4.5]decan-1-one] and `COc1cc(C)c(S(=O)(=O)N2CCc3ccc(C(=O)N4CCC5(CC4)CCN(Cc4ccc(F)cc4)C5=O)cc3C2)c(C)c1` [G_CC-039, 2-(4-Fluorobenzyl)-8-(2-(4-methoxy-2,6-dimethylphenylsulfonyl)-1,2,3,4-tetrahydroisoquinoline-7-carbonyl)-2,8-diazaspiro[4.5]decan-1-one] are the same in inhibition at 10 µM: 71% for the first, 71% for the second.

Compared with `COc1cc(C)c(S(=O)(=O)N2CCc3ccc(C(=O)N4CCC5(CCN(Cc6ccccc6)C5)C4)cc32)c(C)c1` (stereo not shown) [G_CC-007, (7-Benzyl-2,7-diazaspiro[4.4]nonan-2-yl)(1-(4-methoxy-2,6-dimethylphenylsulfonyl)indoline-6-yl)methanone], `COc1cc(C)c(S(=O)(=O)N2CCCc3ccc(C(=O)N4CCC5(CCN(Cc6ccccc6)C5)C4)cc32)c(C)c1` (stereo not shown) [G_CC-027, (7-Benzyl-2,7-diazaspiro[4.4]nonan-2-yl)(1-(4-methoxy-2,6-dimethylphenylsulfonyl)-1,2,3,4-tetrahydroquinolin-7-yl)methanone] is lower in inhibition at 10 µM: 59% for the first, 58% for the second.

First: O=C(c1ccc2c(c1)N(C(=O)c1ccccc1Cl)CC2)N1CCC2(CC1)CCN(c1ccncc1)CC2 [G_CC-009, (1-(2-Chlorobenzoyl)indolin-6-yl)(9-(pyridin-4-yl)-3,9-diazaspiro[5.5]undecan-3-yl)methanone]
Second: O=C(c1ccc2c(c1)CN(C(=O)c1ccccc1Cl)CC2)N1CCC2(CC1)CCN(c1ccncc1)CC2 [G_CC-045, (2-(2-Chlorobenzoyl)-1,2,3,4-tetrahydroisoquinolin-7-yl)(9-(pyridin-4-yl)-3,9-diazaspiro[5.5]undecan-3-yl)methanone]
The inhibition at 10 µM of the first is lower: 78% for the first, 92% for the second.

Going from `O=C(c1ccc2c(c1)CN(C(=O)c1ccccc1Cl)C2)N1CCC2(CC1)CCN(Cc1ccc(F)cc1)C2=O` [G_CC-018, 8-(2-(2-Chlorobenzoyl)isoindoline-5-carbonyl)-2-(4-fluorobenzyl)-2,8-diazaspiro[4.5]decan-1-one] to `COc1cc(C)c(S(=O)(=O)N2CCc3ccc(C(=O)N4CCC5(CC4)CCN(Cc4ccccc4)C5=O)cc3C2)c(C)c1` [G_CC-040, 2-Benzyl-8-(2-(4-methoxy-2,6-dimethylphenylsulfonyl)-1,2,3,4-tetrahydroisoquinoline-7-carbonyl)-2,8-diazaspiro[4.5]decan-1-one], the inhibition at 10 µM rises from 51% to 70%.

First: COc1cc(C)c(S(=O)(=O)N2CCCc3ccc(C(=O)N4CCC5(CC4)C(=O)N(C)CC5c4ccc(F)cc4)cc32)c(C)c1 (stereo not shown) [G_CC-025, 4-(4-Fluorophenyl)-8-(1-(4-methoxy-2,6-dimethylphenylsulfonyl)-1,2,3,4-tetrahydroquinoline-7-carbonyl)-2-methyl-2,8-diazaspiro[4.5]decan-1-one]
Second: COc1cc(C)c(S(=O)(=O)N2CCCc3ccc(C(=O)N4CCC5(CC4)CCN(Cc4ccccc4)C5=O)cc32)c(C)c1 [G_CC-026, 2-Benzyl-8-(1-(4-methoxy-2,6-dimethylphenylsulfonyl)-1,2,3,4-tetrahydroquinoline-7-carbonyl)-2,8-diazaspiro[4.5]decan-1-one]
The inhibition at 10 µM of the first is lower: 51% for the first, 58% for the second.

First: COc1cc(C)c(S(=O)(=O)N2CCc3ccc(C(=O)N4CCC5(CCN(Cc6ccccc6)C5)C4)cc3C2)c(C)c1 (stereo not shown) [G_CC-041, (7-Benzyl-2,7-diazaspiro[4.4]nonan-2-yl)(2-(4-methoxy-2,6-dimethylphenylsulfonyl)-1,2,3,4-tetrahydroisoquinolin-7-yl)methanone]
Second: COc1cc(C)c(S(=O)(=O)N2CCc3ccc(C(=O)N4CCC5(CC4)C(=O)NCN5c4ccccc4)cc3C2)c(C)c1 [G_CC-043, 8-(2-(4-Methoxy-2,6-dimethylphenylsulfonyl)-1,2,3,4-tetrahydroisoquinoline-7-carbonyl)-1-phenyl-1,3,8-triazaspiro[4.5]decan-4-one]
The inhibition at 10 µM of the first is lower: 64% for the first, 74% for the second.

`COc1cc(C)c(S(=O)(=O)N2CCCc3ccc(CC(=O)N4CCC5(CC4)CCN(Cc4ccccc4)C5=O)cc32)c(C)c1` [G_CC-053, 2-Benzyl-8-(2-(1-(4-methoxy-2,6-dimethylphenylsulfonyl)-1,2,3,4-tetrahydroquinolin-7-yl)acetyl)-2,8-diazaspiro[4.5]decan-1-one] gave an inhibition at 10 µM of 84%.

Molecular target: T2, human B1R receptor (hB1R) (Homo sapiens, UniProt P46663)
T2 construct: expressed in transfected cells; host or cells: CHO K1 cells, stably transfected
T2 sequence (P46663 1-353): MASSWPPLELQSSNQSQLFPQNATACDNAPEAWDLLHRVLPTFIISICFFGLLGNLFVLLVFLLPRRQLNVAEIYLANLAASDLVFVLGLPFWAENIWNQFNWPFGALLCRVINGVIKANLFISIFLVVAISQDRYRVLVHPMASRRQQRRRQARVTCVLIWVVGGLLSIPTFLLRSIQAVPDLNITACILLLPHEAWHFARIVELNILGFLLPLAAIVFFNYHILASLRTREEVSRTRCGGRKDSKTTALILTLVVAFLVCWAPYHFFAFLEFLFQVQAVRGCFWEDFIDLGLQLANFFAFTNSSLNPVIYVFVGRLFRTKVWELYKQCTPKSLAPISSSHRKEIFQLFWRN
Assay: FLIPR Ca2+ functional study on bradykinin receptor 1, hB1R cells (CHO K1)
Type: cell-based
Conditions: CHO-K1, 10 μM test substance; CHO K1 cells with human B1R; agonist Lys-Des-Arg9-bradykinin at EC80; read-out: B1R antagonism, human [10 μM] % inhibition
Method: as §1, §2, §3, §4

Compared with `COc1cc(C)c(S(=O)(=O)N2CCc3ccc(C(=O)N4CCC5(CC4)CCN(c4ccncc4)CC5)cc3C2)c(C)c1` [Compound G-04, (2-(4-Methoxy-2,6-dimethylphenylsulfonyl)-1,2,3,4-tetrahydroisoquinolin-7-yl)(9-(pyridin-4-yl)-3,9-diazaspiro[5.5]undecan-3-yl)methanone], `COc1cc(C)c(S(=O)(=O)N2CCCc3ccc(CC(=O)N4CCC5(CC4)CCN(c4ccncc4)C5)cc32)c(C)c1` [Compound G-09, 2-(1-(4-Methoxy-2,6-dimethylphenylsulfonyl)-1,2,3,4-tetrahydroquinolin-7-yl)-1-(2-(pyridin-4-yl)-2,8-diazaspiro[4.5]decan-8-yl)ethanone] is lower in inhibition at 10 µM: 97% for the first, 96% for the second.
